Where two headings read alike, the source gives them in different places. Bounds are passed on as bounds.

In general, Ki refers to the dissociation constant of the complex between target and ligand, obtained from inhibition or displacement. For orientation: Kp means tissue or fluid exposure divided by exposure in the circulation. The term AUC(0-inf) denotes total exposure, with the tail of the curve extrapolated. High values mean more exposure, low ones less exposure. One may read the AUC(0-t) as exposure summed from dosing to a finite time, without extrapolation to infinity. As a reminder, the MRT last is a mean duration of stay, worked out from the concentration-time curve. In general, Cmax refers to the peak of the concentration-time curve. The Tmax is the time from dosing to the highest level. By AUC is commonly meant the area under the concentration-time curve, a measure of exposure. By bioavailability is commonly meant the share of a dose that reaches the circulation, judged against a reference dose that is usually intravenous. A low value points to little systemic uptake.

The target of one data set is T1, A2A receptor (Homo sapiens, UniProt P29274).
T1 construct: purchased
The data set can be described thus: Radioligand receptor binding assay, A2A receptor. Conditions: cell membranes overexpressing A2A receptor, read-out: Potency Ki A2A. On the procedure: (§1) Using conventional receptor binding assay techniques, Compounds 1-24 were assayed to determine binding activity at the A2A, A1, and A3 receptors with the results shown in Table 7.
(§2) Receptor binding affinity of Compounds 1-24 was measured using radioligand binding assays using commercially obtained cell membranes prepared from cell lines overexpressing the A2A, A1, or A3 receptors. Briefly, cell membrane preparations from cells expressing the specific receptor were mixed with the appropriate [^3H]-labeled tracer for the specific receptor and the test compound or a known inhibitor of receptor-ligand binding. Following 60 min incubation at room temperature to allow receptor-ligand complex formation, the complexes were collected by filtration, washed with 50 mM Tris HCl (pH 7.5) to remove radioligand that was not receptor-bound, and the remaining radioactivity determined by liquid scintillation counting. Specific radioligand binding was calculated for each test compound concentration and IC50 values were determined by non-linear, regression analysis. Inhibition constants (Ki) were calculated using the equation of Cheng and Prusoff using the observed IC50 of the tested compound, the concentration of radioligand employed in the assay and the experimentally determined values for the Kd of the ligand.

The next data set concerns the target T2, A1 receptor (Homo sapiens, UniProt P30542).
T2 construct: purchased
T2 sequence (P30542 1-326): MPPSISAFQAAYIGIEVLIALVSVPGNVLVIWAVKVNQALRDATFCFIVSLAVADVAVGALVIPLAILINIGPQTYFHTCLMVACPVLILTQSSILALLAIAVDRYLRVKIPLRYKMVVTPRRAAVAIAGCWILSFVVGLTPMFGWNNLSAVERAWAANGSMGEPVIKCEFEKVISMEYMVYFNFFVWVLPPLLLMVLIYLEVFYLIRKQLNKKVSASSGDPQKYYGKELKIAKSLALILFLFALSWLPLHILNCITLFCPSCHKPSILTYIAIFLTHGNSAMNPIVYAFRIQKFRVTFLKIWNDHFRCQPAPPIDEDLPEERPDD
Kind of data set: Radioligand receptor binding assay, A1 receptor. Conditions: cell membranes overexpressing A1 receptor, read-out: Potency Ki A1. On the procedure:
as §1, §2

The nature of data set [1]: Brain-to-plasma ratio (B/P) after administration. The data set is classed as in vivo, Sprague-Dawley rats. Conditions: Sprague-Dawley, rat, brain-to-plasma ratio at 1 h. The text has this:
A similar unexpected result was obtained when the phenyl ring present on Compound 1 was replaced with a halogen substituted pyridine. The halogen was previously introduced on the phenyl ring with the aim of blocking a possible metabolic soft-spot, with similar results observed as for Compound 1 in terms of exposure, clearance and bioavailability (Compound 10 and Compound 15). The substituted pyridine ring was designed to modulate the lipophilicity and polar surface area, as well as to address metabolic soft-spot concerns. Clearance and bioavailability parameters remain similar between substituted phenyl and pyridine (Compound 4 and Compound 14) analogs, which span a range in cLogP of 2.7-3.2. It was therefore surprising the significant improvement in exposure and clearance observed for the more lipophilic Compound 19. […] A compound is commonly deemed to be a brain penetrant if the brain-to-blood/plasma concentration ratio (B/P) is greater than 0.04 using methods as known in the art (Schaffer, Annual Reports in Medicinal Chemistry, 45:55-70, 2010).
Plasma pharmacokinetic parameters were determined following oral (PO) administration of further compounds essentially as described in Example 28 with the results shown in Table 6.

Data set [2] in a line: Plasma pharmacokinetic parameters following intravenous (IV) or oral (PO) administration in rats. It counts as in vivo, Sprague-Dawley rats. Conditions: rat; for Cmax: read-out: Cmax; for Tmax: read-out: Tmax. On the procedure:
Adult male Sprague-Dawley rats (230-250 g) (Charles River Labs, Hollister, CA) were utilized for the study. There were 2 rats/group. All animals were food fasted overnight with water provided ad libitum at all times. Compounds 1, 4, 14 and 19 were synthesized as described in Examples 2, 17, 7, and 12, respectively, and formulated in injectable water.
(§3) The morning of each dosing, individual doses were calculated based on current body weights on the day of dosing. The jugular vein cannula (JVC) and the carotid artery cannula (CAC) were externalized, flushed with HEP/saline (10 IU/mL HEP/mL saline), plugged, and labeled to identify the jugular vein and the carotid artery. The IV group animals were dosed at 0.5 mg/kg of Compound 1, 4, 14 or 19, respectively, intravenously via the jugular vein, while the PO dose was administered 2.5 mg/kg of Compound 1, 4, 14 or 19, respectively, orally via gavage. For the IV group, immediately following the dose of test article, the dead volume of the catheter was flushed with 0.9% saline to ensure the animals received the full dose.
Approximately 0.2 mL of blood was collected per time point from JVC. Blood samples were collected at 2 (IV group only), 5, 15, 30, 60, 120, 240, 360, 420 (Compound 19 only), 480, 720 (Compound 19 only), and 1440 minutes via the CAC and transferred immediately into K2EDTA coated tubes pre-loaded 2 μl with quenching cocktail and placed on wet ice. The samples were centrifuged within 30 min after collection at 10,000 RPM for 5 minutes and the resulting plasma was separated. Plasma was transferred into microfuge tubes and placed on dry ice immediately. The plasma samples were stored at approximately −70° C. until bioanalysis.
Plasma samples were extracted by protein precipitation with acetonitrile containing 0.1% formic acid and doxepin for Compound 1 (available from Sigma-Aldrich) or SCH58261 for Compounds 4, 14 and 19 (available from Sigma-Aldrich) as an internal standard. Following vortex and centrifugation, supernatant was diluted 3-fold with water containing 0.1% formic acid and analyzed by LC-MS/MS.
Pharmacokinetic parameters (PK) were determined by non-compartmental analysis (NCA) using Phoenix 64 WinNonlin (version 8) and Dotmatics (version 5.0). Nominal doses and time points were used for the analysis.
The following PK parameters were estimated using plasma concentration-time profile of each animal with the results presented in Table 3: • AUCinf Area under the concentration-time from zero to time infinity • AUClast Area under the concentration-time from zero to time of last concentration value • F Bioavailability • CL Total body clearance • Cmax Maximum (peak) concentration • MRTlast Mean residence time to last observable concentration • Tmax Time to reach maximum or peak concentration following administration • Vss Volume of distribution at steady state
Adult male Sprague-Dawley rats (230-250 g) (Charles River Labs, Hollister, CA) were utilized for the study. There were 2 rats/group. All animals were food fasted overnight with water provided ad libitum at all times. Compound 1 was synthesized as described in Example 2 and formulated in injectable water.
as §3, with “1” for “1, 4, 14 or 19, respectively,”
Approximately 0.2 mL of blood was collected per time point from JVC. […]

Where [3] appears, read: male, Sprague-Dawley, plasma, iv, 0.5 mg/kg, IV 0.5 mg/kg, injectable water.
Setting [4] is: male, Sprague-Dawley, plasma, oral, 2.5 mg/kg, Table 2 summary of Example 27, values marked 1 are the average of experiments.
Setting [5] is: male, Sprague-Dawley, plasma, po, 2.5 mg/kg, PO 2.5 mg/kg via gavage, injectable water.
Setting [6] is: male, Sprague-Dawley, plasma, 2.5 mg/kg, Table 6, oral (PO) administration essentially as described in Example 28.
Where [7] appears, read: male, Sprague-Dawley, plasma, intravenous, 0.5 mg/kg, Table 6, essentially as described in Example 28.
Setting [8] is: male, Sprague-Dawley, plasma, po, 2.5 mg/kg, Table 6, oral (PO) administration essentially as described in Example 28.

T1 sequence (P29274 whole entry): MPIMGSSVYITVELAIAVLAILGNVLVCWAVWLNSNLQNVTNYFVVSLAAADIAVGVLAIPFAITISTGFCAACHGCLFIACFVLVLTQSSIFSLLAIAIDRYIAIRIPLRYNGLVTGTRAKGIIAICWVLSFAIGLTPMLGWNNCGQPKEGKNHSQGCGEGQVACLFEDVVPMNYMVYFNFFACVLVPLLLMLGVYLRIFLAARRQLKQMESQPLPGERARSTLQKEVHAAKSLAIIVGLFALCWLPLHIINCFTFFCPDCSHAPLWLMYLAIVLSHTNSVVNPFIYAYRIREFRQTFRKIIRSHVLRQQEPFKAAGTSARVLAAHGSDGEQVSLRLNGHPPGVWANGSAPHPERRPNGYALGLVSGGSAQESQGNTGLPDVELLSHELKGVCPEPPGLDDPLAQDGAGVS

As for `COCCOc1cnc(N2CCN(CCN(C)c3cc4nc(-c5ncco5)nn4c(N)n3)CC2)c(C(F)(F)F)c1` [Compound 19, N^7-(2-{4-[5-(2-methoxyethoxy)-3-(trifluoromethyl)pyridin-2-yl]piperazin-1-yl}ethyl)-N^7-methyl-2-(1,3-oxazol-2-yl)[1,2,4]triazolo[1,5-c]pyrimidine-5,7-diamine], the Ki at A2A receptor was 0.004 µM. Moreover, on A1 receptor, the Ki came out at 16 µM. Besides, the Kp at 1 h in data set [1] (Table 2) stood at 0.01. In data set [2] (male, Sprague-Dawley, plasma, intravenous, 0.5 mg/kg, Table 2 summary of Example 27, values marked 1 are the average of experiments), this molecule returned a clearance of 7 mL/min/kg. Moreover, in data set [2] (setting [3]), the AUC(0-inf) amounted to 1230 ng·h/mL, the AUC(0-t) was 1220 ng·h/mL, the MRT last stood at 1.48 h and the clearance was 6.85 mL/min/kg. In data set [2] (setting [3]), the Cmax was 1020 ng/mL and the Tmax amounted to 0.033 h. Also, the Vd in data set [2] (male, Sprague-Dawley, plasma, iv, 0.5 mg/kg, IV 0.5 mg/kg, injectable water, read-out: Vss obs) worked out at 0.635 L/kg. In data set [2] (setting [4]), this molecule had an AUC of 4980 ng·h/mL and a bioavailability of 83%. For the same molecule, in data set [2] (setting [5]), the AUC(0-inf) was determined as 5050 ng·h/mL, the area under the curve AUC(0-t) came to 4980 ng·h/mL, the MRT last was 2.65 h and the Cmax was found to be 1300 ng/mL. Also, the Tmax in data set [2] (setting [5]) is 1.25 h. In data set [2] (IV), the “Total clearance as % liver blood flow” value is listed as about 10 % liver blood flow. In data set [2] (IV 0.5 mg/kg, injectable water, 0.5 mg/kg), this molecule returned an MRTlast of 1.4825 h. This molecule also yielded a CL in data set [2] (PO 2.5 mg/kg row of Table 3) of 9.05 mL/min/kg. The same molecule displayed a F in data set [2] (PO 2.5 mg/kg vs IV 0.5 mg/kg) of 82.7%.

Regarding `[2H]C([2H])([2H])OC([2H])([2H])C([2H])([2H])Oc1ccc(N2C([2H])([2H])C([2H])([2H])N(C([2H])([2H])C([2H])([2H])N(c3cc4nc(-c5ncco5)nn4c(N)n3)C([2H])([2H])[2H])C([2H])([2H])C2([2H])[2H])cc1` [Compound 20, N^7-(^2H3)methyl-N^7-[2-{4-[4-({2-[(^2H3)methyloxy](^2H4)ethyl}oxy)phenyl](^2H8)piperazin-1-yl}(^2H4)ethyl]-2-(1,3-oxazol-2-yl)[1,2,4]triazolo[1,5-c]pyrimidine-5,7-diamine], the Ki on A2A receptor was 0.006 µM; on A1 receptor, over 100 µM. In addition, the Kp at 1 h in data set [1] (oral, 2.5 mg/kg, Table 6) was found to be 0.05. In addition, the AUC in data set [2] (setting [6]) turned out to be 1170 ng·h/mL. For the same molecule, the clearance in data set [2] (setting [7]) came out at 17 mL/min/kg. In data set [2] (setting [8]), this molecule returned a bioavailability of 50%.

With `COCCOc1cnc(N2CCN3[C@H](CC[C@H]3CN(C)c3cc4nc(-c5ncco5)nn4c(N)n3)C2)c(F)c1` [Compound 21, N^7—({(6S,8aR)-2-[3-fluoro-5-(2-methoxyethoxy)pyridin-2-yl]octahydropyrrolo[1,2-a]pyrazin-6-yl}methyl)-N^7-methyl-2-(1,3-oxazol-2-yl)[1,2,4]triazolo[1,5-c]pyrimidine-5,7-diamine], the Ki was found to be 0.008 µM at A2A receptor and 3.08 µM at A1 receptor. The Kp at 1 h in data set [1] (oral, 2.5 mg/kg, Table 6) worked out at 0.05. In data set [2] (setting [6]), this molecule registered an AUC of 429 ng·h/mL. Also, the clearance in data set [2] (setting [7]) stood at 30 mL/min/kg. The bioavailability in data set [2] (setting [8]) was found to be 31%.

`COCCOc1ncc(N2CCN(CCN(C)c3cc4nc(-c5ncco5)nn4c(N)n3)CC2)cc1C(F)(F)F` [Compound 22, N^7-(2-{4-[6-(2-methoxyethoxy)-5-(trifluoromethyl)pyridin-3-yl]piperazin-1-yl}ethyl)-N^7-methyl-2-(1,3-oxazol-2-yl)[1,2,4]triazolo[1,5-c]pyrimidine-5,7-diamine]: the Ki turned out to be 0.011 µM at A2A receptor and 3.2 µM on A1 receptor. For the same molecule, in data set [1] (oral, 2.5 mg/kg, Table 6), the Kp at 1 h was found to be 0.03. The AUC in data set [2] (setting [6]) is 280 ng·h/mL. For the same molecule, the clearance in data set [2] (setting [7]) amounted to 38 mL/min/kg. The same molecule showed a bioavailability in data set [2] (setting [8]) of 25%.

For `COCCOc1ccc(N2CCN(CCN(C)c3cc4nc(-c5ncco5)nn4c(N)n3)CC2)nc1` [Compound 23, N^7-(2-{4-[5-(2-methoxyethoxy)pyridin-2-yl]piperazin-1-yl}ethyl)-N^7-methyl-2-(1,3-oxazol-2-yl)[1,2,4]triazolo[1,5-c]pyrimidine-5,7-diamine], the Ki on A2A receptor worked out at 0.009 µM; at A1 receptor it was 15.5 µM. Further, the Kp at 1 h in data set [1] (oral, 2.5 mg/kg, Table 6) was 0.08. This molecule had an AUC in data set [2] (setting [6]) of 336 ng·h/mL. The same molecule gave a clearance in data set [2] (setting [7]) of 52 mL/min/kg. The molecule further yielded a bioavailability in data set [2] (setting [8]) of 42%.

On to `COCCOc1ccc(N2CCN(CCNc3cc4nc(-c5ncco5)nn4c(N)n3)CC2)cc1` [Compound 24, N^7-(2-{4-[4-(2-methoxyethoxy)phenyl]piperazin-1-yl}ethyl)-2-(1,3-oxazol-2-yl)[1,2,4]triazolo[1,5-c]pyrimidine-5,7-diamine], for which the Ki was 0.043 µM on A2A receptor and over 10 µM at A1 receptor. In data set [1] (oral, 2.5 mg/kg, Table 6), the Kp at 1 h was 0.11. For the same molecule, in data set [2] (setting [6]), the AUC turned out to be 1070 ng·h/mL. In data set [2] (setting [7]), the clearance came to 28 mL/min/kg. The bioavailability in data set [2] (setting [8]) is 70%.
